Consider 64 compounds from a melting point compilation (Tetko et al.; mined from patent text by program, amines drawn as free bases though some values may be those of a salt).

Structures are written as SMILES.

The term melting point denotes the temperature, or range, at which the solid turns liquid. As to `CC(=O)N(C)[C@H]1CCN(C(=O)c2ccc(-c3[nH]nc4c3C(=O)c3c(NC(=O)NN5CCOCC5)cccc3-4)s2)C1`, the melting point was > 300 °C.

Take `CCCc1nc(C(=O)CC)c(C)[nH]1`: the melting point fell in the range of 63 to 67 °C.

Turning to `CNC(=O)CCN1CCC(C(O)(c2ccc(F)cc2)c2ccc(F)cc2)CC1`, the melting point fell in the range of 127 to 129 °C.

On to `CC(C)(C)c1nn(-c2cc(O)c(Cl)cc2Cl)c(=O)s1`, for which the melting point lay in the range of 130 to 132 °C.

On to `COC(=O)c1c(C)nc2cccc(C)c2c1NCc1ccc(Br)cc1`, for which the melting point came to 150 °C.

As for `CC(=O)Nc1cccc(C)n1`, the melting point was 87 °C.

Turning to `CCOP(=O)(/C=C/c1cn(-c2ccccc2)nc1OCc1ccc(OCc2nc(-c3cccnc3)oc2C)c(OC)c1)OCC`, the melting point was in the range of 128 to 129 °C.

On to `COC(=O)c1cn(C)cn1`, for which the melting point fell in the range of 72.5 to 81 °C.

The compound `Nc1sc(CCC(=O)O)cc1C(=O)c1ccccc1Cl` gave a melting point of 170 to 173 °C.

With `O=[N+]([O-])c1ccc(NS(=O)(=O)C(F)(F)F)c(Oc2ccc3ccccc3c2)c1`, the melting point was in the range of 117 to 120 °C.

For the compound `CSc1nc(-c2ccccn2)n(-c2ccc(F)cc2)c(=O)c1C#N`, the melting point lay in the range of 221 to 227 °C.

Turning to `Nc1c(Nc2cccc(-c3ccncc3)n2)c(=O)c1=O`, the melting point was > 340 °C.

`COc1cc(Nc2nccc(Oc3ccccc3)n2)cc(OC)c1OC` came in with a melting point of 149 °C.

In turn, `CCS(=O)(=O)/C=C/c1ccc2[nH]cc(C3CCN(C)CC3)c2c1` came in with a melting point of 98 to 102 °C.

`COc1cccc(NS(=O)(=O)c2ccc(N)cc2)c1`: the melting point was 142 to 145 °C.

With `CC1(CN2CCN(c3nc4ccccc4o3)CC2)Cn2cc([N+](=O)[O-])nc2O1` (centres undefined), the melting point was 228 to 230 °C.

Take `Nc1ccc(O)c(C(=O)CCC(=O)O)c1`: the melting point was in the range of 158 to 160 °C.

As for `Cc1ccc(O)c(Cn2c(N)nc3ccc(CNc4cccc(OC(F)(F)F)c4)cc32)n1`, the melting point was 156 °C.

In the case of `CCOC(=O)Cc1c(C)nc(Nc2nc3cc(C)c(C)cc3[nH]2)nc1O`, the melting point is > 300 °C.

The compound `CCn1nc(Br)c([N+](=O)[O-])c1NCc1ccccc1` registered a melting point of 92 °C.

Consider `OCC1CN(Cc2ccccc2)CC=C1c1ccc(F)cc1` (single isomer, unassigned; (+)), for which the melting point was in the range of 68 to 68.5 °C.

As to `CC(C)CS(=O)(=O)N1C[C@@H](C)C[C@H](Nc2ncccc2-c2cnc3[nH]ccc3n2)C1`, the melting point was 215 to 218 °C.

In turn, `COc1cc(C(C)=O)ccc1OCCCN1CCCC(C(O)(c2ccc(F)cc2)c2ccc(F)cc2)C1` (centres undefined) returned a melting point of 100 to 105 °C.

For `Cc1ccccc1CCNC(=O)c1ccc(Cl)cc1`, the melting point was 95 to 96 °C.

For the compound `COc1cccc(F)c1-c1ccc(NC(=O)OC(C)(C)C)c(N)c1`, the melting point fell in the range of 165 to 167 °C.

Turning to `CC(CC(=O)NCc1ccccc1)n1c(C(F)(F)F)nc2cc(F)c(-n3c(=O)cc(C(F)(F)F)n(C)c3=O)cc21` (centres undefined), the melting point lay within 191 to 193 °C.

Take `O=C1Nc2cc(F)ccc2C1c1ncnc2nn(C3CCCC3)cc12` (centres undefined): the melting point lay within 258 to 263 °C.

The compound `Oc1ccccc1C=NC1=NN(c2cnc3ccccc3c2)CC1` showed a melting point of 288 to 289 °C.

With `CC(C)C(NC(=O)c1ccccc1SSc1ccccc1C(=O)NC(C(=O)O)C(C)C)C(=O)O` (centres undefined), the melting point is 226 to 228 °C.

On to `COCCOCc1c(F)cccc1-c1ccc2nc(-c3ccc(Cl)cc3)cn2c1`, for which the melting point lay within 104 to 105 °C.

The compound `CCOCCCC1(O)c2ccccc2C=Cc2ccc(I)cc21` (centres undefined) gave a melting point of 95 to 105 °C.

`CN=C(N)Nc1nc(-c2cccc(C(=O)NC)c2)cs1` yielded a melting point of 111 to 113 °C.

`CC(C)(C)OC1OC(=O)CC(C)(C)C1OS(C)(=O)=O` (centres undefined) returned a melting point of 64 °C.

For `CCC(CC)Nc1cc(C)nc(Cl)c1[N+](=O)[O-]`, the melting point was in the range of 82 to 84 °C.

In turn, `COc1ccc(/C(C)=C/c2ccc(C(=O)O)cc2)cc1C1(C)CCCCC1` returned a melting point of 175 to 176 °C.

As to `CC(C(N)=O)c1ccc2c(c1)CCc1ccccc1O2` (centres undefined), the melting point was in the range of 122 to 123 °C.

Take `COc1ccc(N2C(=O)c3cccc(OC)c3NC2c2ccc(OCCCl)cc2)cc1` (centres undefined): the melting point was 122 to 124 °C.

For `IC#CCOCc1cccnc1`, the melting point lay within 109 to 110 °C.

In the case of `Cc1ccc(CC2CCN(C(=O)c3cc(=O)c4cc(O)ccc4[nH]3)CC2)cc1`, the melting point came to 152 °C.

On to `O=S(=O)(NCCCN1CCC(Oc2ccc(F)c(F)c2)CC1)c1ccc(-c2ccccn2)s1`, for which the melting point lay within 128 to 129 °C.

As for `CC(C)(C)OC(=O)C1C=CCn2c(=O)n(CCCl)c(=O)n21` (centres undefined), the melting point was 87 to 88 °C.

As to `COC(=O)NCc1cccc(-c2ccnc3c(C(=O)c4ccco4)cnn23)c1`, the melting point lay within 152 to 154 °C.

Compound `CCOC(=O)c1nocc1Cn1nnnc1-c1cccc(Cl)c1Cl` yielded a melting point of 161 to 163 °C.

Compound `COc1cc(C=Cc2ccc(=O)[nH]n2)cc(OC)c1OC` came in with a melting point of 194 to 196 °C.

Take `Nc1ccc(C(=O)c2ccncc2)cc1[N+](=O)[O-]`: the melting point is 294 to 295 °C.

Take `CCCC1OCC(C)n2c1nc1c(N)nc3ccccc3c12` (centres undefined): the melting point lay in the range of 243 to 268 °C.

Take `Nc1nc2ccc(OCc3c(F)cccc3F)cc2s1`: the melting point is 178 °C.

In the case of `C1=C(c2cccnc2)CCC(N2CCN(c3ccccn3)CC2)C1` (centres undefined), the melting point lay within 146 to 148 °C.

In the case of `CCCC(=O)c1c(C(C)(C)C)cc(C=[N+]([O-])C(C)(C)C)cc1C(C)(C)C`, the melting point fell in the range of 217 to 236 °C.

In the case of `CN(C)CCC(=O)OC1c2ccccc2C(=O)N1c1ccc2ccc(Cl)nc2n1` (centres undefined), the melting point was 150 °C.

For `ON=c1cc(-c2cc3cccn3cn2)oc2ccc(OCCc3ccc(Cl)cc3)cc12`, the melting point lay in the range of 247 to 249 °C.

In turn, `CC(C)(/C=C\Cl)C(=O)Nc1ccc(Cl)cc1` displayed a melting point of 127 to 128 °C.

Regarding `CC(=O)c1ccc(N2CCCCC2)c(S(N)(=O)=O)c1`, the melting point is 130 to 132 °C.

Compound `COC(=O)C1C(C)CC2C3CCC4CC(O)CCC4(C)C3C(=O)CC21C` (centres undefined) displayed a melting point of 173 to 174 °C.

`Cn1c(=O)n(-c2ccccc2)c(=O)n1SC(Cl)(Cl)Cl` displayed a melting point of 154 °C.

Consider `Cc1cccc(-c2nc3ccc(Cl)nn3c2-c2ccnc(NC3CCCCC3)c2)c1`, for which the melting point was in the range of 191 to 192 °C.

For `Cc1nc(C(O)(Cn2cncn2)c2ccc(F)cc2)cs1` (centres undefined), the melting point came to 120 °C.

Turning to `CCOC(=O)C1=Cc2cc(C)c(O)cc2OC1C(F)(F)F` (centres undefined), the melting point was in the range of 151 to 153 °C.

Compound `Cn1cc(C2=C(c3cn(CCCNCCN)c4ccccc34)C(=O)NC2=O)c2ccccc21` returned a melting point of 190 to 193 °C.

Consider `CCOC(=O)/C(N)=C/C(=O)/C=C/c1ccc(Cl)cc1F`, for which the melting point was in the range of 102 to 103 °C.

`CC(C(=O)c1ccco1)N1CCN(c2ccc(CO)c(Cl)c2)CC1` (centres undefined) gave a melting point of 95 to 98 °C.

`Cc1cccc(-c2[nH]c(C(C)C)nc2-c2cccc(-c3ccc(S(=O)(=O)N(C)C)cc3)c2)n1`: the melting point lay in the range of 93 to 96 °C.

The compound `NCC(=O)NC(Cc1ccccn1)c1ccccc1` (centres undefined) came in with a melting point of 75 to 77 °C.

With `CC1=C(C(=O)OC(C)C)C(c2cccc([N+](=O)[O-])c2)C(S(=O)(=O)N(C)C)=C(C)N1` (centres undefined), the melting point fell in the range of 136 to 138 °C.
